In experiment [1] the test system is spontaneous motor activity. The experiment in a line: spontaneous motor activity in mice (circular actophotometers, activity counts). Type of experiment: in vivo, mouse. To be noted: for hyperactive response: same conditions, 0.32-32 mg./kg. i.p. Here is the method: (§1) On the other hand, the activity of the compounds of the present invention, as psychomotor stimulants, is based on a variety of tests, including (1) a study of their motor activity in mice and (2) a measurement of their ability to influence the loss of avoidance behavior in rats trained on a non-discriminated (Sidman) avoidance schedule.
A total of seven mice was employed at each dose level tested (viz., at 0.32, 1.0, 3.2, 10 and 32 mg./kg., i.p., respectively) and these mice were separated one to an activity cage. After an initial 1/2 hour exposure period (for acclimation purposes), each animal in the cage was treated with a sample of the drug intraperitoneally and immediately thereafter returned to said cage, with activity counts every 1/2 hour being recorded from that point on.

Experiment [2] in a line: psychotropic (antidepressant, psychomotor stimulant) activity and side effects of the compounds, general statements. Type of experiment: in vivo. To be noted: general statement; compounds and their hydrochloride acid addition salts.
Experiment [3] concerns non-discriminated (Sidman) avoidance behavior. The experiment in a line: non-discriminated (Sidman) avoidance behavior in rats, response rates. The format is in vivo, rat. To be noted: 5 and 10 mg./kg. i.p.
Excerpt: as §1
Eight mature male rats were trained in Lehigh Valley automatic multiple-operant conditioning chambers to avoid a 2.0 mA electric shock that would last for 0.75 second, or terminate sooner if the rat lever became activated during the shock. In these tests, lever presses postponed the onset of shock for an initial period of 30 seconds, while only 10 seconds elapsed between shocks if no intervening response was elicited. The rats were run for a 40-minute control period before receiving the drug and then for approximately 2.5 hours after each treatment.

Molecules are shown by their SMILES. Where a name gives a salt, the structure may show the parent alone.

Data on twelve compounds can be found in patent US4045488A, “Aminophenyltetralin compounds” (Pfizer Inc., priority 1976, dated 1977).

With `CN[C@@H]1CC[C@@H](c2ccccc2)c2ccccc21` (relative stereo) [Trans-isomer of Example IV, trans-dl-N-methyl-4-phenyl-1,2,3,4-tetrahydro-1-naphthylamine hydrochloride], in experiment [1] (after 32 mg./kg.), the “time course (duration) of effect” value is on record as “especially long-lived”.
`N[C@@H]1CC[C@@H](c2ccccc2)c2ccccc21` (relative stereo) [trans-dl-4-phenyl-1,2,3,4-tetrahydro-1-naphthylamine]: the antidepressant activity result in experiment [2] was “markedly high degree of antidepressant activity”.
Still for that read-out and setting: in the case of `CN(C)[C@@H]1CC[C@@H](c2ccccc2)c2ccccc21` (relative stereo) [trans-dl-N,N-dimethyl-4-phenyl-1,2,3,4-tetrahydro-1-naphthylamine] it was “markedly high degree of antidepressant activity”; in that of `c1ccc([C@@H]2CC[C@@H](NC3CC3)c3ccccc32)cc1` (relative stereo) [trans-dl-N-cyclopropyl-4-phenyl-1,2,3,4-tetrahydro-1-naphthylamine], “markedly high degree of antidepressant activity”; in that of `CCN[C@@H]1CC[C@@H](c2ccccc2)c2ccccc21` (relative stereo) [trans-dl-N-ethyl-4-phenyl-1,2,3,4-tetrahydro-1-naphthylamine], “markedly high degree of antidepressant activity”.
Same read-out and setting: the value for `CC(C)N[C@@H]1CC[C@@H](c2ccccc2)c2ccccc21` (relative stereo) [trans-dl-N-isopropyl-4-phenyl-1,2,3,4-tetrahydro-1-naphthylamine] was “markedly high degree of antidepressant activity”; that for `CN[C@@H]1CC[C@@H](c2ccccc2)c2ccccc21` (relative stereo) [trans-dl-N-methyl-4-phenyl-1,2,3,4-tetrahydro-1-naphthylamine] was “markedly high degree of antidepressant activity”.
For `CN[C@@H]1CC[C@@H](c2ccccc2)c2ccccc21` [Trans-d-isomer of Example III, trans-d-N-Methyl-4-phenyl-1,2,3,4-tetrahydro-1-naphthylamine as the hydrochloride], in experiment [3], the “duration of drug effect after administration” value is “approximately one and a half”; the “start of drug effect” value is ≤ 20 min. Besides, in experiment [3] (in four out of eight rats), the “effect on response rates” value is “moderate to marked increase in response rates” and the “increase of response rates over normal pre-drug control levels” value is given as 2-6 times. Besides, the “increase of response rates over pre-drug control levels” value in experiment [3] (in two other rats) is recorded as “about 1.5 times”. Further, the “effect on activity counts compared with d-amphetamine sulfate and methylphenidate” value in experiment [1] (10 mg./kg. i.p. versus d-amphetamine sulfate 3.2 mg./kg. and methylphenidate 10 mg./kg.) is “more pronounced than that of d-amphetamine sulfate at 3.2 mg./kg. and surpassing even that of methylphenidate at 10 mg./kg”. In addition, the “effect on activity counts” value in experiment [1] (10 mg./kg. i.p., 30-60 minutes after treatment) is “markedly elevated the activity counts”. Moreover, the “time course (duration) of effect” value in experiment [1] (10 mg./kg. versus d-amphetamine sulfate 3.2 mg./kg.) was “even more prolonged in its effect than did that of d-amphetamine sulfate”.
Turning to `CN[C@H]1CC[C@H](c2ccccc2)c2ccccc21` [Trans-l-isomer of Example III, trans-l-N-methyl-4-phenyl-1,2,3,4-tetrahydro-1-naphthylamine hydrochloride], in experiment [1] (tested at 10 and 32 mg./kg. i.p.), the stimulant effect result is recorded as “little evidence of a stimulant effect”.
`CNCCCN1c2ccccc2CCc2ccccc21` [desmethylimipramine, reference compound]: in experiment [1], the hyperactive response entry is “failed to elicit any hyperactive response whatsoever”.
Same read-out and setting: in the case of `CNCCCC1c2ccccc2C=Cc2ccccc21` [protriptlyine, reference compound] it was “failed to elicit any hyperactive response whatsoever”.
As to `CN[C@@H]1CC[C@@H](c2ccccc2)c2ccccc21` [trans-d-N-methyl-4-phenyl-1,2,3,4-tetrahydro-1-naphthylamine], the antidepressant activity entry in experiment [2] was “markedly high degree of antidepressant activity”.
